The test system of assay [1] is SK-MEL-28. In words: Photo- and cytotoxic activity determination (MTT), SK-MEL-28 cells. In kind it is cell-based, human. The settings on record: normoxia; for SK-MEL-28 PI (phototherapeutic index), IC50 dark/IC50 irradiated: dark tested up to 100 μM. The text has this:
(§1) Having shown that the Ir(III)-COUPY conjugates can sensitize both type I and II ROS through spectroscopic techniques and readily internalize into living cells, their photocytotoxicity was screened in various cancer cell lines. This screening included two representative melanoma cell lines (human A375 and […] human SK-MEL-28) and cancer cells with resistance to the clinical drug cisplatin. For the latter, both sensitive and cisplatin-resistant ovarian cancer cells (A2780 and A2780cis) as well as HeLa cells, which also show a degree of chemoresistance to the platinum anticancer drug in vitro,[54] were used. For the determination of dark and light cytotoxicity, dose–response curves were assayed from both conditions to provide the correspondent IC50 values, which correspond to the concentration needed for inhibition of cell growth by 50%. Phototherapeutic index (PI) was calculated as the ratio of dark to light IC50 value for each compound.
(§2) A375, HeLa, and SK-MEL-28 cells were cultured in Dulbecco’s modified Eagle medium (DMEM) supplemented with 10% FBS, L-glutamine, and 1% penicillin–streptomycin. A2780 and A2780cis cells were grown in RPMI-1640 cell medium supplemented with 10% fetal bovine serum (FBS) and 2 mM L-glutamine. Acquired resistance to cisplatin in the A2780cis cell line was maintained by adding cisplatin 1 μM to culture medium every second passage. Cells were cultured in a humidified incubator at 310 K with 5% CO2 atmosphere and subcultured two or three times a week with appropriate densities and were confirmed to be mycoplasma-free using a standard Hoechst DNA staining method.
(§3) A2780, A2780cis, HeLa, A375, and SK-MEL-28 cells were maintained at logarithmic growth-phase and cultured in 96-well plates at a density of 5000 cells/well in complete medium for 24 h at 310 K, 5% CO2 in a humidified incubator. For hypoxia experiments, a hypoxia condition was set up by Tissue Culture Service at University of Murcia using nitrogen (N2) to displace O2 down to a minimum of 2% in a Forma Steri-Cycle i160 incubator (Thermo Fisher Scientific). Serial dilutions of the compounds were added at the final concentrations in the range of 0–100 μM in a final volume of 100 μL per well. A light-based treatment schedule was performed as follows: 1 h incubation with the compounds in the dark, followed by 1 h incubation under irradiation conditions by placing the Photoreactor EXPO-LED from Luzchem (Canada) fitted with green lamps (final light intensity applied of 1.5 mW/cm^2 at λmax = 520 nm) inside the CO2 incubator. All the cell culture plates subjected to light irradiation included untreated controls to verify that cell viability was not affected by light. Then, treatment-containing media was removed, and fresh media was added for a 48 h cell recovery period; the temperature throughout the experiment remained at 310 K. Dark control samples were placed in the same dark conditions and then kept incubated for 1 h in the dark in the humidified CO2 incubator. Medium was then aspirated by suction, cells were loaded with 50 μL of MTT solution (1 mg/mL) for additional 4 h and then removed, and 50 μL of DMSO was added to solubilize the purple formazan crystals formed in active cells. The absorbance was measured at 570 nm using a microplate reader (FLUOstar Omega), and the IC50 values were calculated based on the inhibitory rate curves using the following equation [drawing 4] 4 where I represents the percentage inhibition of viability observed, Imax is the maximal inhibitory effect, IC50 is the concentration that inhibits 50% of maximal growth, C is the concentration of the treatment, and n is the slope of the semi-logarithmic dose–response sigmoidal curves. The non-linear fitting was performed using SigmaPlot 14.0 software. All experiments were performed in three independent studies with n = 3 replicates per concentration level. For a detailed phototoxicity procedure, ref ([43]) includes technical explanations.

In assay [2] the test system is HeLa. In words: Photo- and cytotoxic activity determination (MTT), HeLa cells. In kind it is cell-based. The settings on record: normoxia; for HeLa PI (phototherapeutic index), IC50 dark/IC50 irradiated: 520 nm, dark tested up to 100 μM; for IC50: 48 h drug-free medium.
Description: as §1, §2, §3

Assay [3] relates to A2780cis cells. The assay can be described thus: Photo- and cytotoxic activity determination (MTT), A2780cis cells, normoxia or hypoxia. Format: cell-based. The settings on record: for Partial inhibition (% of cell growth inhibition with respect to untreated controls), Hypoxia / Partial inhibition (% of cell growth inhibition with respect to untreated controls), Normoxia: 250 μM, 2 h incubation in the dark, 48 h drug-free recovery; for Hypoxia PI (phototherapeutic index) / Normoxia PI (phototherapeutic index): dark tested up to 250 μM; for A2780cis PI (phototherapeutic index), IC50 dark/IC50 irradiated: dark tested up to 100 μM. The procedure, abridged: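 Green-light photocytotoxicity: 1 h dark preincubation with compound, 1 h light (520 nm, 1.5 mW/cm^2), 48 h recovery, MTT at 570 nm; dark controls run in parallel. IC50 fitted to inhibition curves.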

Assay [4] deals with A375. In words: Photo- and cytotoxic activity determination (MTT), A375 cells. In kind it is cell-based, human. Conditions: normoxia; for A375 PI (phototherapeutic index), IC50 dark/IC50 irradiated: 520 nm, dark tested up to 100 μM; for IC50: 48 h drug-free medium.
Description: as §1, §2, §3

[5] abbreviates: 1 h incubation + 1 h green light 520 nm, 1.5 mW cm^–2, 48 h drug-free medium, read-out: SK-MEL-28 light IC50.
Setting [6] is: kept in the dark, 2 h treatment, 48 h drug-free medium, read-out: SK-MEL-28 dark IC50.
The mark [7] stands for this setting: 1 h incubation + 1 h green light 520 nm, 1.5 mW cm^–2, read-out: HeLa light IC50.
Where [8] appears, read: kept in the dark, 2 h treatment, read-out: HeLa dark IC50.
[9] abbreviates: A2780cis, hypoxia 2% O2, 520 nm.
Setting [10] is: A2780cis, hypoxia 2% O2, dark, tested up to 250 μM, read-out: Hypoxia Dark IC50.
The mark [11] stands for this setting: A2780cis, normoxia 21% O2, 520 nm.
[12] abbreviates: A2780cis, normoxia 21% O2, dark, tested up to 250 μM, read-out: Normoxia Dark IC50.
Where [13] appears, read: hypoxia, 520 nm, read-out: A2780cis Light 520 nm IC50 (microM) Hypoxia.
[14] abbreviates: hypoxia, dark, read-out: A2780cis Dark IC50 (microM) Hypoxia.
Where [15] appears, read: normoxia, 1 h incubation + 1 h green light 520 nm, 1.5 mW cm^–2, 48 h drug-free medium, read-out: A2780cis light IC50.
Where [16] appears, read: normoxia, dark, up to 250 microM, read-out: A2780cis Dark IC50 (microM) Normoxia.
Setting [17] is: normoxia, kept in the dark, tested up to 100 μM, 2 h treatment, 48 h drug-free medium, read-out: A2780cis dark IC50.
Setting [18] is: 1 h incubation + 1 h green light 520 nm, 1.5 mW cm^–2, read-out: A375 light IC50.
Setting [19] is: kept in the dark, 2 h treatment, read-out: A375 dark IC50.

Several values for one entry are separate records, joined by “and”; a condition that tells them apart may be missing. Identical values can stand only once. Like-named read-outs stand apart in the source and are kept apart here.

Usually IC50 stands for the point on the concentration scale where inhibition reaches its midpoint.

Turning to `CCCCn1c2[n+](c3cc(C(=O)NCCCNC(=O)C[n+]4ccc(/C(C#N)=C5/C=C(C)c6cc7c8c(c6O5)CCCN8CCC7)cc4)ccc31)[Ir-3]13([c]4ccccc4-c4[nH]c5ccccc5[n+]41)([c]1ccccc1-c1[nH]c4ccccc4[n+]13)[n+]1c-2ccc2ccccc21` [3c], the IC50 is more than 100 µM in assay [1] (520 nm, read-out: SK-MEL-28 Light 520 nm IC50 (microM) Normoxia); more than 100 µM in assay [1] (setting [5]); more than 100 µM in assay [1] (dark, read-out: SK-MEL-28 Dark IC50 (microM) Normoxia); more than 100 µM in assay [1] (setting [6]); 45 ± 4 µM in assay [2] (setting [7]); more than 100 µM in assay [2] (setting [8]). The IC50 in assay [3] (setting [10]) was more than 250 µM; in assay [3] (setting [12]), more than 250 µM; in assay [3] (setting [13]), 8 ± 1 µM; in assay [3] (setting [14]), more than 250 µM; in assay [3] (setting [15]) it was 1.04 ± 0.02 µM; in assay [3] (setting [16]), more than 250 µM. Also, the concentration for half-maximal inhibition (IC50) in assay [3] (setting [17]) was more than 100 µM; in assay [4] (setting [18]) it was 38 ± 5 µM; in assay [4] (setting [19]), more than 100 µM. Besides, the “HeLa PI (phototherapeutic index), IC50 dark/IC50 irradiated” value (“HeLa PI (phototherapeutic index)” below) in assay [2] is listed as more than 2.2. Also, the “Partial inhibition (% of cell growth inhibition with respect to untreated controls), Hypoxia” value in assay [3] (A2780cis, hypoxia) amounted to 61 ± 8%. The “Partial inhibition (% of cell growth inhibition with respect to untreated controls), Normoxia” value in assay [3] (A2780cis, normoxia) turned out to be 74 ± 10%. Also, the “Hypoxia PI (phototherapeutic index)” value in assay [3] (setting [9]) was > 31.3 and > 31. The “Normoxia PI (phototherapeutic index)” value in assay [3] (setting [11]) is > 240.4 and > 240. Besides, in assay [3] (normoxia, 520 nm), the “A2780cis PI (phototherapeutic index), IC50 dark/IC50 irradiated” value (from here on “A2780cis PI (phototherapeutic index)”) is more than 96. For the same compound, in assay [4], the “A375 PI (phototherapeutic index), IC50 dark/IC50 irradiated” value (shortened to “A375 PI (phototherapeutic index)”) is listed as more than 3.
Take `CCCCn1c2[n+](c3cc(C(=O)NCCCCCC(=O)NCCCNC(=O)C[n+]4ccc(/C(C#N)=C5/C=C(C)c6ccc(N(CC)CC)cc6O5)cc4)ccc31)[Ir-3]13([c]4ccccc4-c4[nH]c5ccccc5[n+]41)([c]1ccccc1-c1[nH]c4ccccc4[n+]13)[n+]1c-2ccc2ccccc21` [3d]: the “SK-MEL-28 PI (phototherapeutic index), IC50 dark/IC50 irradiated” value in assay [1] (520 nm) was more than 40. The IC50 is 2.5 ± 0.2 µM in assay [1] (setting [5]); more than 100 µM in assay [1] (setting [6]); 2 ± 0.4 µM in assay [2] (setting [7]); more than 100 µM in assay [2] (setting [8]); more than 250 µM in assay [3] (setting [10]); more than 250 µM in assay [3] (setting [12]). The IC50 in assay [3] (setting [13]) is 1.9 ± 0.2 µM; in assay [3] (setting [14]) it was more than 250 µM; in assay [3] (setting [15]), 1.1 ± 0.2 µM; in assay [3] (setting [16]), more than 250 µM; in assay [3] (setting [17]), more than 100 µM; in assay [4] (setting [18]), 46 ± 4 µM. For the same compound, the IC50 in assay [4] (setting [19]) is more than 100 µM. Moreover, the “HeLa PI (phototherapeutic index)” value in assay [2] is on record as more than 50. Moreover, in assay [3] (A2780cis, hypoxia), the “Partial inhibition (% of cell growth inhibition with respect to untreated controls), Hypoxia” value came out at 27 ± 4%. Further, the “Partial inhibition (% of cell growth inhibition with respect to untreated controls), Normoxia” value in assay [3] (A2780cis, normoxia) was 21 ± 1%. Moreover, the “Hypoxia PI (phototherapeutic index)” value in assay [3] (setting [9]) was > 131.6 and > 131. For the same compound, in assay [3] (setting [11]), the “Normoxia PI (phototherapeutic index)” value is > 227.3 and > 227. Also, the “A2780cis PI (phototherapeutic index)” value in assay [3] (normoxia, 520 nm) is given as more than 91. The “A375 PI (phototherapeutic index)” value in assay [4] is more than 2.2.
On to `CCCCn1c2[n+](c3cc(C(=O)NC[C@H]4CC[C@H](C(=O)NCCCNC(=O)C[n+]5ccc(/C(C#N)=C6/C=C(C)c7ccc(N(CC)CC)cc7O6)cc5)CC4)ccc31)[Ir-3]13([c]4ccccc4-c4[nH]c5ccccc5[n+]41)([c]1ccccc1-c1[nH]c4ccccc4[n+]13)[n+]1c-2ccc2ccccc21` [3e], for which the “SK-MEL-28 PI (phototherapeutic index), IC50 dark/IC50 irradiated” value in assay [1] (520 nm) is reported as more than 13. Also, the IC50 in assay [1] (setting [5]) was 7.6 ± 0.9 µM; in assay [1] (setting [6]) it was more than 100 µM; in assay [2] (setting [7]), 9.3 ± 0.8 µM; in assay [2] (setting [8]) it was more than 100 µM; in assay [3] (setting [10]), more than 250 µM; in assay [3] (setting [12]), more than 250 µM. Further, the IC50 is 1.7 ± 0.3 µM in assay [3] (setting [13]); more than 250 µM in assay [3] (setting [14]); 0.93 ± 0.04 µM in assay [3] (setting [15]); more than 250 µM in assay [3] (setting [16]); more than 100 µM in assay [3] (setting [17]); 19 ± 3 µM in assay [4] (setting [18]). Also, the half-maximal inhibitory concentration (IC50) in assay [4] (setting [19]) was more than 100 µM. Moreover, in assay [2], the “HeLa PI (phototherapeutic index)” value is on record as more than 11. Moreover, the “Partial inhibition (% of cell growth inhibition with respect to untreated controls), Hypoxia” value in assay [3] (A2780cis, hypoxia) is 12 ± 3%. The “Partial inhibition (% of cell growth inhibition with respect to untreated controls), Normoxia” value in assay [3] (A2780cis, normoxia) was 18 ± 1%. Also, in assay [3] (setting [9]), the “Hypoxia PI (phototherapeutic index)” value is > 147.1 and > 147. In assay [3] (setting [11]), the “Normoxia PI (phototherapeutic index)” value was > 268.8 and > 269. The “A2780cis PI (phototherapeutic index)” value in assay [3] (normoxia, 520 nm) was more than 108. In addition, the “A375 PI (phototherapeutic index)” value in assay [4] is more than 5.

Source of the values: PMC10291553, “Exploring Structure–Activity Relationships in Photodynamic Therapy Anticancer Agents Based on Ir(III)-COUPY Conjugates” (Journal of Medicinal Chemistry, 2023).
